The source made the active and inactive calls. The rule behind the calls is not given here. Where a SMILES comes first, the peptide text is derived from it. [ ]: non-standard residue; d: D form. Aib = CC(C)(N)C(=O)O
Key:
[1] = tested on: SH-SY5Y; experiment: Neuroprotective activity against amyloid beta (1 to 42)-induced cytotoxicity in human SH-SY5Y cells assessed as increase in cell viability at 0.000001 to 10 mM preincubated with compound for 48 hrs followed by stimulation with amyloid beta(1 to 42) and measured after 18 hrs by MTT assay; assay type: functional, cell-based; settings: dose lower 1 nM, dose upper 10.0 mM
[2] = molecular target: T1, Amyloid-beta precursor protein (Homo sapiens, UniProt P05067); experiment: Inhibition of 15N-labelled amyloid beta (1 to 42) (unknown origin) expressed in Escherichia coli BL21 (DE3)-pLysS cells fibrillization assessed as absence of observable number of protofibrils at 1:20 protein to compound molar ratio incubated for 192 hrs by AFM microscopic analysis
[3] = molecular target: T1, Amyloid-beta precursor protein; experiment: Disaggregation of 15N-labelled amyloid beta (1 to 42) (unknown origin) expressed in Escherichia coli BL21 (DE3)-pLysS cells in pH 7.4 buffer assessed as absence of mature fibrils at 1:20 protein to compound molar ratio incubated for 192 hrs by AFM microscopic analysis
[4] = molecular target: T1, Amyloid-beta precursor protein; experiment: Binding affinity to 5R to 22E residues of 15N-labelled amyloid beta (1 to 42) (unknown origin) expressed in Escherichia coli BL21 (DE3)-pLysS cells assessed as chemical shift perturbation by measuring dissociation constant by Chemical shift mapping NMR analysis
[5] = molecular target: T1, Amyloid-beta precursor protein; experiment: Inhibition of 15N-labelled amyloid beta (1 to 42) (unknown origin) expressed in Escherichia coli BL21 (DE3)-pLysS cells fibrillization assessed as absence of mature fibrils at 1:20 protein to compound molar ratio incubated for 192 hrs by AFM microscopic analysis
[6] = molecular target: T1, Amyloid-beta precursor protein; experiment: Inhibition of 15N-labelled amyloid beta (1 to 42) (unknown origin) expressed in Escherichia coli BL21 (DE3)-pLysS cells fibrillization assessed as decrease in indicator of fibrillization (DoF) by AFM microscopic analysis
[7] = molecular target: T1, Amyloid-beta precursor protein; experiment: Disaggregation of 15N-labelled amyloid beta (1 to 42) (unknown origin) expressed in Escherichia coli BL21 (DE3)-pLysS cells in pH 7.4 buffer assessed as absence of bundle of fibrils at 1:20 protein to compound molar ratio incubated for 192 hrs by AFM microscopic analysis

T1 sequence (P05067 whole entry): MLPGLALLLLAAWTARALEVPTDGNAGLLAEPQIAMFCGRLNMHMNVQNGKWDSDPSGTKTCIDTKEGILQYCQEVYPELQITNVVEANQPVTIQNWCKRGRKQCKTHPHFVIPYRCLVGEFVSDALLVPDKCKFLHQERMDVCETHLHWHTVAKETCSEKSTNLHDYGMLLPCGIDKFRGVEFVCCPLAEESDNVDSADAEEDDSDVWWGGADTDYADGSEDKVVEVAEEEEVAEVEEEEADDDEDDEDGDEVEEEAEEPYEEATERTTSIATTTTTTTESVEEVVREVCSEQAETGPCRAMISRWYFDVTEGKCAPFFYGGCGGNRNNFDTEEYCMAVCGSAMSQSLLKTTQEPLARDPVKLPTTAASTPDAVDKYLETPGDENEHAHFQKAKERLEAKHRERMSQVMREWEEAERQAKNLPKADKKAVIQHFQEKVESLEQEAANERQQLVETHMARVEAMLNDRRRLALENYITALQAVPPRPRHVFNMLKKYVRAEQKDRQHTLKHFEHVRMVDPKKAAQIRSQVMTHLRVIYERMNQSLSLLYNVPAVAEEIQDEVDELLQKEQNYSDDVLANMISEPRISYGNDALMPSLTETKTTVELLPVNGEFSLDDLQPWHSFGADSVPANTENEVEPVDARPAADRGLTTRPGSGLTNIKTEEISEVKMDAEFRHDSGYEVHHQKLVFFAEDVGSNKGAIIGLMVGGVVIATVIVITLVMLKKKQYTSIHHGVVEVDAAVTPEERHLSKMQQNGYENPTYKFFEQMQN

inhibition [2] | Activity [3] | Kd [4] | inhibition [5] | Activity [6] | Activity [7] | Compound | Activity [1]
Active | Active | 5.74 mM | Active | 0.03 | Active | CC(C)(NC(=O)[C@@H](N)Cc1c[nH]c2ccccc12)C(=O)N[C@@H](Cc1c[nH]cn1)C(=O)O (H-Trp-[Aib]-His-OH) | Active
Active | Active | 0.65 mM | Active | 0.06 | Active | H-SYSTPGK-OH | Active
